{"source": "the Deep4Chem optical property database", "test": "solvent given as SMILES", "note": "Values joined by “and” are separate entries in the source; they are usually repeats but may differ in a detail not shown here. Equal entries are not always repeated."}
{"smiles": "COc1cc2sc3cc(OC)c(F)cc3c(=O)c2cc1F", "values": [{"measurement": "emission maximum", "setting": "in CS(C)=O", "result": 416, "unit": "nm"}]}
{"smiles": "c1cc2c3cscc3c3ccsc3c2s1", "values": [{"measurement": "emission maximum", "setting": "in ClC(Cl)Cl", "result": 395, "unit": "nm"}]}
{"smiles": "CN1C(=CC2=C([O-])C(=CC3=[N+](C)c4ccc(Cl)cc4C3(C)C)C2=O)C(C)(C)c2cc(Cl)ccc21", "values": [{"measurement": "emission maximum", "setting": "in CO", "result": 653, "unit": "nm"}, {"measurement": "emission maximum", "setting": "in ClC(Cl)Cl", "result": 654, "unit": "nm"}]}
{"smiles": "Cc1cc2c3ccccc3[nH]c2c2[nH]c3ccccc3c12", "values": [{"measurement": "emission maximum", "setting": "in ClCCl", "result": 371, "unit": "nm"}]}
{"smiles": "Oc1cc(-c2cccs2)ccc1-c1nc2ccccc2s1", "values": [{"measurement": "emission maximum", "setting": "in CCO", "result": 408, "unit": "nm"}, {"measurement": "emission maximum", "setting": "in ClCCl", "result": 515, "unit": "nm"}, {"measurement": "emission maximum", "setting": "in O", "result": 517, "unit": "nm"}]}
{"smiles": "CCCCCCCCC1(CCCCCCCC)c2cc3c(cc2-c2sc(-c4ccc(/C=C5\\SC(=S)N(CC)C5=O)c5nsnc45)cc21)C(CCCCCCCC)(CCCCCCCC)c1cc(-c2ccc(/C=C4\\SC(=S)N(CC)C4=O)c4nsnc24)sc1-3", "values": [{"measurement": "emission maximum", "setting": "in ClC(Cl)Cl", "result": 728, "unit": "nm"}]}
{"smiles": "CCCC1=CC2=C(c3c(C)cc(C)cc3C)c3cc(CCC)c(-c4ccc5ccc6cccc7ccc4c5c67)n3[B-](F)(F)[N+]2=C1c1ccc2ccc3cccc4ccc1c2c34", "values": [{"measurement": "emission maximum", "setting": "in ClC(Cl)Cl", "result": 626, "unit": "nm"}]}
{"smiles": "CCCCn1c2ccccc2c2ccc3c4cc(-c5cccc(F)c5)ccc4n(CCCC)c3c21", "values": [{"measurement": "emission maximum", "setting": "in ClC(Cl)Cl", "result": 398, "unit": "nm"}]}
{"smiles": "CCC(CC)COC1=CC2=C3c4cc(OCC(CC)CC)c(-c5ccccc5)n4[B-](F)(F)[n+]4c3n(c3cc(C(C)(C)C)ccc34)[B-](F)(F)[N+]2=C1c1ccccc1", "values": [{"measurement": "emission maximum", "setting": "in C1CCOC1", "result": 734, "unit": "nm"}, {"measurement": "emission maximum", "setting": "in CC#N", "result": 733, "unit": "nm"}, {"measurement": "emission maximum", "setting": "in ClCCl", "result": 736, "unit": "nm"}]}
{"smiles": "Nc1cccc2c1C(=O)c1ccccc1-2", "values": [{"measurement": "emission maximum", "setting": "in C1CCCCC1", "result": 471, "unit": "nm"}, {"measurement": "emission maximum", "setting": "in CC#N", "result": 501, "unit": "nm"}, {"measurement": "emission maximum", "setting": "in CCO", "result": 521, "unit": "nm"}, {"measurement": "emission maximum", "setting": "in c1ccccc1", "result": 482, "unit": "nm"}]}
{"smiles": "N#Cc1nc2c3ccc(N(c4ccccc4)c4ccccc4)cc3c3cc(N(c4ccccc4)c4ccccc4)ccc3c2nc1C#N", "values": [{"measurement": "emission maximum", "setting": "in C1COCCO1", "result": 586.91, "unit": "nm"}, {"measurement": "emission maximum", "setting": "in CCCCCC", "result": 515.27, "unit": "nm"}, {"measurement": "emission maximum", "setting": "in Cc1ccccc1", "result": 566, "unit": "nm"}, {"measurement": "emission maximum", "setting": "in ClC(Cl)Cl", "result": 639.45, "unit": "nm"}, {"measurement": "emission maximum", "setting": "in O=P(c1ccccc1)(c1ccccc1)c1cccc(-c2cc(-n3c4ccccc4c4ccccc43)cc(-n3c4ccccc4c4ccccc43)c2)n1", "result": 606, "unit": "nm"}]}
{"smiles": "CC(=O)c1ccc(C#Cc2ccc3c(N(C)C)cc(-c4ccccc4)cc3c2)cc1", "values": [{"measurement": "emission maximum", "setting": "in ClCCl", "result": 577, "unit": "nm"}]}
{"smiles": "CC1=[N+]2C(=C(c3ccc(C(=C(c4ccccc4)c4ccccc4)c4ccccc4)cc3)c3ccc(/C=C/c4ccc(C(=C(c5ccccc5)c5ccccc5)c5ccccc5)cc4)n3[B-]2(F)F)C=C1", "values": [{"measurement": "emission maximum", "setting": "in C1CCOC1", "result": 612, "unit": "nm"}]}
{"smiles": "CC(=O)OCCN1C(=O)c2cccc3c(Oc4ccc(C=O)cc4)ccc(c23)C1=O", "values": [{"measurement": "emission maximum", "setting": "in ClC(Cl)Cl", "result": 411, "unit": "nm"}]}
{"smiles": "CC1=CC(/C=C/c2ccc(OCCCN=[N+]=[N-])cc2)=[N+]2C1=C(c1ccccc1)c1c(C)cc(C)n1[B-]2(F)F", "values": [{"measurement": "emission maximum", "setting": "in CO", "result": 578, "unit": "nm"}]}
{"smiles": "COc1ccc(-n2nc(C(=O)c3ccc(Cl)cc3)c(N3CCCC3)n2)cc1", "values": [{"measurement": "emission maximum", "setting": "in CC#N", "result": 421, "unit": "nm"}]}
{"smiles": "O=Cc1ccc(-c2ccc3c(c2)C(=O)c2cc(-c4ccc(C=O)cc4)ccc2-3)cc1", "values": [{"measurement": "emission maximum", "setting": "in C1CCOC1", "result": 371, "unit": "nm"}]}
{"smiles": "CN(C)c1ccc(/C=C/c2nc3c(ccc4ccccc43)s2)cc1", "values": [{"measurement": "emission maximum", "setting": "in C1CCCCC1", "result": 468, "unit": "nm"}, {"measurement": "emission maximum", "setting": "in CC#N", "result": 524, "unit": "nm"}]}
{"smiles": "C1=C(c2ccc(-c3cccs3)s2)CCC1", "values": [{"measurement": "emission maximum", "setting": "in C1CCOC1", "result": 413, "unit": "nm"}, {"measurement": "emission maximum", "setting": "in CC#N", "result": 412, "unit": "nm"}, {"measurement": "emission maximum", "setting": "in CCCCCC", "result": 410, "unit": "nm"}, {"measurement": "emission maximum", "setting": "in CCO", "result": 408, "unit": "nm"}, {"measurement": "emission maximum", "setting": "in OCCOCCO", "result": 416, "unit": "nm"}, {"measurement": "emission maximum", "setting": "in c1ccncc1", "result": 418, "unit": "nm"}]}
{"smiles": "F[B-]1(F)N2C(=Nc3cccc4cccc2c34)c2cccc[n+]21", "values": [{"measurement": "emission maximum", "setting": "in CC#N", "result": 413, "unit": "nm"}, {"measurement": "emission maximum", "setting": "in CO", "result": 383, "unit": "nm"}, {"measurement": "emission maximum", "setting": "in CS(C)=O", "result": 498, "unit": "nm"}, {"measurement": "emission maximum", "setting": "in Cc1ccccc1", "result": 384, "unit": "nm"}]}
{"smiles": "O=C([O-])c1ccccc1-c1c2cc(Br)c(=O)c(Br)c-2oc2c(Br)c([O-])c(Br)cc12", "values": [{"measurement": "emission maximum", "setting": "in CC(C)O", "result": 551, "unit": "nm"}, {"measurement": "emission maximum", "setting": "in CCO", "result": 550, "unit": "nm"}, {"measurement": "emission maximum", "setting": "in CO", "result": 542, "unit": "nm"}, {"measurement": "emission maximum", "setting": "in O", "result": 538, "unit": "nm"}]}
{"smiles": "CN(C)c1ccc(/C=C/c2cc[n+](Cc3cc(C[n+]4ccc(/C=C/c5ccc(N(C)C)cc5)cc4)cc(C[n+]4ccc(/C=C/c5ccc(N(C)C)cc5)cc4)c3)cc2)cc1", "values": [{"measurement": "emission maximum", "setting": "in C1COCCO1", "result": 580, "unit": "nm"}, {"measurement": "emission maximum", "setting": "in CC(C)O", "result": 607, "unit": "nm"}, {"measurement": "emission maximum", "setting": "in CCCCCCCCO", "result": 595, "unit": "nm"}, {"measurement": "emission maximum", "setting": "in CCCCO", "result": 608, "unit": "nm"}, {"measurement": "emission maximum", "setting": "in CCCO", "result": 611, "unit": "nm"}, {"measurement": "emission maximum", "setting": "in CCO", "result": 613, "unit": "nm"}, {"measurement": "emission maximum", "setting": "in CO", "result": 618, "unit": "nm"}, {"measurement": "emission maximum", "setting": "in CS(C)=O", "result": 627, "unit": "nm"}, {"measurement": "emission maximum", "setting": "in ClC(Cl)Cl", "result": 580, "unit": "nm"}, {"measurement": "emission maximum", "setting": "in ClCCl", "result": 600, "unit": "nm"}]}
{"smiles": "CCOC(=O)CCCCCn1c2ccc(F)cc2c(=O)c2cc3c(cc21)c(=O)c1cc(F)ccc1n3CCCCCC(=O)OCC", "values": [{"measurement": "emission maximum", "setting": "in CO", "result": 566, "unit": "nm"}]}
{"smiles": "O=c1oc2c(ccc3ccccc32)nc1-c1ccccc1", "values": [{"measurement": "emission maximum", "setting": "in CC#N", "result": 490, "unit": "nm"}, {"measurement": "emission maximum", "setting": "in CCCCCC", "result": 459, "unit": "nm"}, {"measurement": "emission maximum", "setting": "in CO", "result": 511, "unit": "nm"}, {"measurement": "emission maximum", "setting": "in c1ccccc1", "result": "478 nm and 468 nm"}]}
{"smiles": "CCCCCCCCCCCCOc1cc2c3cc(OCCCCCCCCCCCC)c(OCCCCCCCCCCCC)cc3c3c(cc(OCCCCCCCCCCCC)c4nc5cc(C#Cc6ccc(OCCCCCCCC)cc6)c(C#Cc6ccc(OCCCCCCCC)cc6)cc5nc43)c2cc1OCCCCCCCCCCCC", "values": [{"measurement": "emission maximum", "setting": "in ClC(Cl)Cl", "result": 657, "unit": "nm"}]}
